Among the data in PubChem BioAssay (NCI) are GI50 and TGI values, retold here.

Each structure is given as a SMILES string.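 Following 48 hours of exposure in 96-well plates, responses at five concentrations were used to interpolate endpoints linearly. GI50 marks 50% less growth. TGI is the concentration that stops growth completely.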

Holding throughout (test): NCI-60 cell line screen, 48 h
In experiment [1] the test system is EKVX NSCLC.
The test system of experiment [2] is COLO 205 colon.
For experiment [3], the system named is SF-295 CNS.
The test system of experiment [4] is MALME-3M melanoma.
Experiment [5] concerns NCI-H522 lung.
Experiment [6] has as its system TK-10 renal.
In experiment [7] the test system is A549 NSCLC.
For experiment [8], the system named is MDA-MB-435.
For experiment [9], the system named is MDA-MB-231 breast.
For experiment [10], the system named is NCI/ADR-RES ovarian.

In the case of `C[C@H]1CCC/C=C/[C@@H]2C[C@H](O)C[C@H]2[C@H](O)[C@@H](SC2OC(CO)C(O)C(O)C2O)CC(=O)O1` (some centres undefined), the GI50 in experiment [1] is more than 100 µM; in experiment [2], 19.4 µM; in experiment [3], more than 100 µM; in [4], 27.6 µM; in [5], more than 100 µM; in experiment [6], more than 100 µM. The GI50 was more than 100 µM in experiment [7], 69.8 µM in experiment [8], 26.9 µM in experiment [9] and 43.3 µM in experiment [10]. Further, the TGI in experiment [1] was more than 100 µM; in [2] it was 41.6 µM; in experiment [3], more than 100 µM; in experiment [4] it was 69.4 µM; in experiment [5] it was more than 100 µM; in [6], more than 100 µM. Also, the TGI in experiment [7] is more than 100 µM; in [8], more than 100 µM; in experiment [9] it was 91 µM; in experiment [10], more than 100 µM.
For `O=c1[nH]cnc2nc(-c3ccc(N(CCCl)CCCl)cc3)[nH]c12`, the GI50 in experiment [1] was 11 µM; in [2] it was more than 100 µM; in experiment [3], 1.57 µM; in experiment [4], 33 µM; in experiment [5], more than 100 µM; in experiment [6] it was 15.4 µM. Besides, the GI50 was 6.19 µM in experiment [7], 3.21 µM in experiment [8], 3.23 µM in experiment [9] and 13.1 µM in [10]. Further, the TGI was more than 100 µM in experiment [1]; more than 100 µM in [2]; 6.5 µM in [3]; more than 100 µM in experiment [4]; more than 100 µM in experiment [5]; 48.4 µM in experiment [6]. The TGI in [7], in experiment [8], in experiment [9] and in experiment [10] was more than 100 µM in each case.
For `O=C(Nc1ccccc1C(=O)Nc1nccs1)c1ccccc1`, the TGI in experiment [1], in experiment [2], in experiment [3], in experiment [4], in experiment [5] and in [6] was more than 100 µM in each case. For the same compound, the TGI in experiment [7], in experiment [8], in [9] and in experiment [10] was more than 100 µM throughout.
Take `C[C@]12CC[C@H]3[C@@H](CCC4=C[C@@H](OC5OCC(OC6OC(CO)C(O)C(O)C6O)C(O)C5O)CC[C@@]43C=O)[C@@]1(O)CCC2C1=CC(=O)OC1` (some centres undefined): the TGI came to 1.64 µM in [1]; 3.25 µM in [2]; 3.53 µM in experiment [3]; 2.19 µM in experiment [4]; 2.88 µM in [5]; 8.19 µM in [6]. Besides, the TGI is 0.484 µM in [7], 3.71 µM in experiment [8], more than 73.7 µM in [9] and 3.28 µM in experiment [10].
Turning to `CC(C)N(Cc1ccccc1)S(=O)(=O)c1n[nH]c(C(C)(C)C)n1`, the TGI in experiment [1], in experiment [2], in experiment [3], in experiment [4], in experiment [5] and in experiment [6] was more than 100 µM each time. For the same compound, the TGI in experiment [7], in experiment [8], in experiment [9] and in [10] was more than 100 µM throughout.
On to `O=C(Nc1ccc(-c2ccnc(Nc3ccc(N4CCOCC4)cc3)n2)cc1)C1CCCN1` (centres undefined), for which the GI50 in experiment [1] is 12.5 µM; in experiment [2] it was 5.25 µM; in experiment [3] it was 4.18 µM; in experiment [4], 6.71 µM; in experiment [5] it was 6.23 µM; in experiment [6], 9.35 µM. In addition, the GI50 in [7] was 5.66 µM; in experiment [8], 6.39 µM; in experiment [9], 7.77 µM; in experiment [10] it was 9.49 µM. Further, the TGI amounted to 33.7 µM in experiment [1]; 20.5 µM in experiment [2]; 20.4 µM in [3]; 23.1 µM in experiment [4]; 21.1 µM in [5]; 33.6 µM in experiment [6]. The TGI in experiment [7] turned out to be 35.3 µM; in [8] it was 21.5 µM; in [9] it was 23.1 µM; in experiment [10], 44.5 µM.
On to `O=C1NC(O)CCN1C1CC(O)C(CO)O1` (centres undefined), for which the TGI in experiment [1], in experiment [2], in experiment [3], in [4], in experiment [5] and in experiment [6] was more than 100 µM in each case. In addition, the TGI in experiment [7], in experiment [8], in [9] and in [10] was more than 100 µM each time.
Consider `CN(C)CCNc1c2c(c(NCCN(C)C)c3c(CO)c[nH]c13)C(=O)c1ccccc1C2=O`, for which the GI50 in experiment [1] was 3.05 µM; in experiment [2] it was 2.74 µM; in [3], 3.39 µM; in experiment [4], 2.4 µM; in experiment [5], 4.6 µM; in experiment [6], 2.53 µM. The GI50 in experiment [7] is 3.41 µM; in [8], 4.56 µM; in experiment [9], 2.29 µM; in [10] it was 4.06 µM. Moreover, the TGI in [1] was 9.34 µM; in experiment [2], more than 37.5 µM; in experiment [3], 17.8 µM; in experiment [4], 6.83 µM; in experiment [5], 24.1 µM; in experiment [6], 7.55 µM. The TGI in [7] was more than 37.6 µM; in experiment [8], 20.6 µM; in [9], 10.7 µM; in experiment [10], 22.7 µM.
Consider `O=C(O)c1ccc2cccnc2c1O`, for which the GI50 in experiment [1] is 1.75 µM; in [2] it was 4.23 µM; in experiment [3], 0.0521 µM; in experiment [4], 1.84 µM; in [5], 0.948 µM; in experiment [6] it was 1.85 µM. The results for the GI50 in experiment [7], in [8] and in [10] were 0.747 µM, 0.87 µM and 1.33 µM, respectively. In addition, the TGI is more than 46 µM in experiment [1]; 10.1 µM in [2]; 0.474 µM in experiment [3]; 4.41 µM in [4]; 13.3 µM in experiment [5]; more than 100 µM in experiment [6]. Also, the TGI was 25.8 µM in [7], 35.8 µM in [8], more than 100 µM in experiment [9] and 36.2 µM in [10].
